Test results: US20250313563A1, “GLYCOGEN SYNTHASE KINASE 3 INHIBITORS AND USES THEREOF” (The Broad Institute, Inc., priority 2022, published 2025)
Like-named read-outs stand apart in the source and are kept apart here.

Columns and labels:
[1] = target: GSK3b (GST-full length GSK3b) (Homo sapiens (Human), UniProt P49841); assay: GSK3b TR-FRET kinase assay; type: biochemical
In short: (§1)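 1 nM GST-GSK3α/β + cpd, 30 min preinc; add 200 nM biotin-pS645 GS(631-650) peptide + ATP (α 4 μM / β 2 μM, or 1 mM); 100 min RT, 50 mM Tris pH 7.5, 20 mM MgCl2, 1% DMSO; EDTA stop; SA-d2/Tb-pSer641 Ab 60 min; 665/615 ratio → IC50.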

[2] = target: GSK3α (GST-full length GSK3α) (Homo sapiens (Human), UniProt P49840); assay: GSK3α TR-FRET kinase assay; type: biochemical
In short: as §1

[3] = 1 nM GSK3b, 2 μM ATP, 30 minute preincubation, read-out: GSK3-B TR-FRET BIOCHEMICAL (TR-FRET), IC50
[4] = 1 nM GSK3α, 4 μM ATP, 30 minute preincubation, read-out: GSK3-A TR-FRET BIOCHEMICAL (TR-FRET), IC50
[5] = 1 nM GSK3b, 2 μM ATP, 30 minute preincubation, geometric mean, read-out: GSK3-B TR-FRET BIOCHEMICAL (TR-FRET), GMean, IC50
[6] = read-out: GSK3-B (TR-FRET 1 mM ATP), GMean, IC50, 1 mM ATP, geometric mean
[7] = 1 nM GSK3α, 4 μM ATP, 30 minute preincubation, geometric mean, read-out: GSK3-A TR-FRET BIOCHEMICAL (TR-FRET), GMean, IC50
[8] = read-out: GSK3-A (TR-FRET 1 mM ATP), GMean, IC50, 1 mM ATP, geometric mean
[9] = 1 nM GSK3b, 2 μM ATP, 30 minute preincubation, Table 16, read-out: GSK3-B TR-FRET BIOCHEMICAL (TR-FRET), IC50
[10] = 1 nM GSK3α, 4 μM ATP, 30 minute preincubation, Table 16, read-out: GSK3-A TR-FRET BIOCHEMICAL (TR-FRET), IC50
[11] = 1 nM GSK3b, 2 μM ATP, 30 minute preincubation, Table 16, read-out: GSK3-B TR-FRET BIOCHEMICAL (TR-FRET)
[12] = 1 nM GSK3α, 4 μM ATP, 30 minute preincubation, Table 16, read-out: GSK3-A TR-FRET BIOCHEMICAL (TR-FRET)
[13] = GSK3-B (TR-FRET 1 mM ATP), GMean, IC50, 1 mM ATP, geometric mean
[14] = GSK3-A (TR-FRET 1 mM ATP), GMean, IC50, 1 mM ATP, geometric mean

GSK3b (GST-full length GSK3b), sequence (P49841 whole entry): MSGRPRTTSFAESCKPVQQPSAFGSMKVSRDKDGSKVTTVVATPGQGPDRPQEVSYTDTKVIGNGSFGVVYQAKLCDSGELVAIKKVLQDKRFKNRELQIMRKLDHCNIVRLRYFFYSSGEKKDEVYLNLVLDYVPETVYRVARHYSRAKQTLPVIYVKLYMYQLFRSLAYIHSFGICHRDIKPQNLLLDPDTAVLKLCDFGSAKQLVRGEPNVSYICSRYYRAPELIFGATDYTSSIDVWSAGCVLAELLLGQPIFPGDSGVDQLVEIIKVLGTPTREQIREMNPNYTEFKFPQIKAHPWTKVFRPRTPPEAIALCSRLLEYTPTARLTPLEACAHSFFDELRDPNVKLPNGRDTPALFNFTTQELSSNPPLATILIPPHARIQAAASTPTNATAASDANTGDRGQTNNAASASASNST
GSK3α (GST-full length GSK3α), sequence (P49840 whole entry): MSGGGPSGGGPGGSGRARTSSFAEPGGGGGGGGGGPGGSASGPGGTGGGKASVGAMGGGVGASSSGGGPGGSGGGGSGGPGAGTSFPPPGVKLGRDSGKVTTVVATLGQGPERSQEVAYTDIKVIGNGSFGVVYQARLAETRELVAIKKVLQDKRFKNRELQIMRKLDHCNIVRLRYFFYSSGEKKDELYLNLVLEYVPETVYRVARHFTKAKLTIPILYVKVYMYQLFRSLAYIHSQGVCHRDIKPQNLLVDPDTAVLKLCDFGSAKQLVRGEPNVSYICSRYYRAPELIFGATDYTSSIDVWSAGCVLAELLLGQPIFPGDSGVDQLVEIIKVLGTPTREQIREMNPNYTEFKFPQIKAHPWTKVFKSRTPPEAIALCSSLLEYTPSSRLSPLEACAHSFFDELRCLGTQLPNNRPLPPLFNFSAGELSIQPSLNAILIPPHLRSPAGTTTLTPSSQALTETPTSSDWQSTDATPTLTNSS

CC[C@]1(c2cccc(C(F)(F)F)c2)C2=C(CCN(C)C2=O)Nc2n[nH]cc21 [Compound 917283]
IC50 [1, 3]: > 5000 nM | IC50 [2, 4]: > 5000 nM

CCC1(c2cccc(N3CCCC3)c2)C2=C(CC(C)(C)NC2=O)Nc2n[nH]c(C(F)(F)F)c21 (centres unmarked) [Compound 947860]
IC50 [1, 5]: ≤ 100 nM | IC50 [1, 6]: 100 to 1000 nM | IC50 [2, 7]: ≤ 100 nM | IC50 [2, 8]: ≤ 100 nM

CCC1(c2cccc(-c3cnn(C)c3)c2)C2=C(CC(C)(C)NC2=O)Nc2n[nH]c(C(F)(F)F)c21 (centres unmarked) [Compound 947405]
IC50 [1, 5]: ≤ 100 nM | IC50 [1, 6]: 100 to 1000 nM | IC50 [2, 7]: ≤ 100 nM | IC50 [2, 8]: ≤ 100 nM

CCC1(c2cccc(-c3cc(C4CCCC4)nn3C)c2)C2=C(CC(C)(C)NC2=O)Nc2n[nH]cc21 (centres unmarked) [Compound 952023]
IC50 [1, 9]: 1000 to 5000 nM | IC50 [2, 10]: 100 to 1000 nM

CC1(C)CC2=C(C(=O)C1F)[C@]1(CC[C@@H](C(F)(F)F)CC1)c1c[nH]nc1N2 (some centres unmarked) [Compound 917134]
IC50 [1, 11]: 100 to 1000 nM | IC50 [2, 12]: ≤ 100 nM

COc1cccc(S(=O)(=O)N2CCC3(CC2)C2=C(CC(C)(C)CC2=O)Nc2n[nH]cc23)c1 [Compound 943962]
IC50 [1, 11]: 100 to 1000 nM | IC50 [1, 3]: 100 to 1000 nM | IC50 [2, 12]: ≤ 100 nM | IC50 [2, 4]: ≤ 100 nM

CCC1(c2cccc(-c3ccnc(C)c3)c2)C2=C(CC(C)(COC)NC2=O)Nc2n[nH]cc21 (centres unmarked) [Compound 948521]
IC50 [1, 5]: 1000 to 5000 nM | IC50 [2, 7]: ≤ 100 nM

CC[C@@]1(c2cccc(-c3cnn4c3CCCC4)c2)C2=C(CC(C)(C)NC2=O)Nc2n[nH]c(C)c21 [Compound 947817]
IC50 [1, 5]: ≤ 100 nM | IC50 [2, 7]: ≤ 100 nM

CCC1(c2cccc(N(C)c3ccc(C(F)(F)F)nc3)c2)C2=C(CC(C)(C)CC2=O)Nc2n[nH]cc21 (centres unmarked) [Compound 932634]
IC50 [1, 9]: 100 to 1000 nM | IC50 [2, 10]: ≤ 100 nM

CC[C@]1(c2cccc(C(F)(F)F)c2)C2=C(Nc3n[nH]cc31)[C@@H](C)NC2=O [Compound 945380]
IC50 [1, 3]: > 5000 nM | IC50 [2, 4]: > 5000 nM

CCC1(c2cccc(-c3ccncc3C)c2)C2=C(CC(C)(C)NC2=O)Nc2n[nH]c(C(F)(F)F)c21 (centres unmarked) [Compound 947404]
IC50 [1, 5]: ≤ 100 nM | IC50 [1, 6]: 100 to 1000 nM | IC50 [2, 7]: ≤ 100 nM | IC50 [2, 8]: ≤ 100 nM

CC1(C)CC(=O)C2=C(C1)Nc1n[nH]cc1C21CCN(S(=O)(=O)c2ccc(C(F)(F)F)cc2)CC1 [Compound 947256]
IC50 [1, 11]: ≤ 100 nM | IC50 [2, 12]: ≤ 100 nM

CC[C@@]1(c2cccc(C(F)(F)F)c2)C2=C(CC3(CCCC3)CC2=O)Nc2n[nH]cc21 [Compound 801311]
IC50 [1, 5]: ≤ 100 nM | IC50 [1, 6]: 100 to 1000 nM | IC50 [2, 7]: ≤ 100 nM | IC50 [2, 8]: ≤ 100 nM

CC[C@]1(c2cccc(C(F)(F)F)c2)C2=C(CCN(c3cnn(C)c3)C2=O)Nc2n[nH]cc21 [Compound 949271]
IC50 [1, 9]: > 5000 nM | IC50 [2, 10]: 100 to 1000 nM

CC[C@@]1(c2cccc(C(F)(F)F)c2)C2=C(CCN(C(C)C)C2=O)Nc2n[nH]cc21 [Compound 857336]
IC50 [1, 3]: 100 to 1000 nM | IC50 [2, 4]: ≤ 100 nM

CC1(C)CC(=O)C2=C(C1)Nc1n[nH]cc1C21CN(c2cccnc2)C1 [Compound 947813]
IC50 [1, 9]: 1000 to 5000 nM | IC50 [2, 10]: 1000 to 5000 nM

CCC1(c2ccccc2)C2=C(CSCC2=O)Nc2n[nH]cc21 (centres unmarked) [Compound 801406]
IC50 [1, 3]: > 5000 nM | IC50 [2, 4]: 1000 to 5000 nM

CC[C@]1(c2ccccc2)C2=C(C[C@]3(CCOC3)CC2=O)Nc2n[nH]cc21 [Compound 816880]
IC50 [1, 5]: > 5000 nM | IC50 [2, 7]: > 5000 nM

CC[C@]1(c2cccc(-c3ccnn3-c3ccc(F)cc3)c2)C2=C(CC(C)(C)NC2=O)Nc2n[nH]cc21 [Compound 950822]
IC50 [1, 9]: 100 to 1000 nM | IC50 [2, 10]: 100 to 1000 nM

CC[C@]1(c2cccc(-c3ccnn3C)c2)C2=C(CC(C)(C)NC2=O)Nc2n[nH]cc21 [Compound 927390]
IC50 [1, 3]: > 5000 nM | IC50 [2, 4]: 100 to 1000 nM

CC[C@@]1(c2cccc(-c3ccnc(C)c3)c2)C2=C(C[C@@]3(CCCOC3)NC2=O)Nc2n[nH]cc21 [Compound 948146]
IC50 [1, 5]: > 5000 nM | IC50 [2, 7]: 1000 to 5000 nM

CCC1(c2cc(-c3ccncc3)ccc2C)C2=C(CC(C)(C)CC2=O)Nc2n[nH]cc21 (centres unmarked) [Compound 893323]
IC50 [1, 9]: 100 to 1000 nM | IC50 [1, 6]: > 5000 nM | IC50 [2, 10]: ≤ 100 nM | IC50 [2, 8]: 100 to 1000 nM

CC(=O)N1CC[C@@]2(C1)C1=C(CC(C)(C)CC1=O)Nc1n[nH]cc12 [Compound 889583]
IC50 [1, 9]: > 5000 nM | IC50 [2, 10]: 1000 to 5000 nM

CC1(C)CC(=O)C2=C(C1)Nc1n[nH]cc1C21COC2(CN(C(=O)C3CCCCCC3)C2)C1 (centres unmarked) [Compound 947308]
IC50 [1, 3]: 100 to 1000 nM | IC50 [2, 4]: ≤ 100 nM

CCC1(c2cccc(-c3ccnc(C)c3)c2)C2=C(CC3(CCOC3)CC2=O)Nc2n[nH]cc21 (centres unmarked) [Compound 947407]
IC50 [1, 11]: 1000 to 5000 nM | IC50 [2, 12]: ≤ 100 nM

Cc1ccc(S(=O)(=O)N2CCC3(CC2)C2=C(CC(C)(C)CC2=O)Nc2n[nH]cc23)s1 [Compound 945672]
IC50 [1, 11]: ≤ 100 nM | IC50 [1, 13]: 100 to 1000 nM | IC50 [2, 12]: ≤ 100 nM | IC50 [2, 14]: 100 to 1000 nM

CC1(C)CC(=O)C2=C(C1)Nc1n[nH]cc1C21CCC2(CC1)COC2 [Compound 883977]
IC50 [1, 3]: 100 to 1000 nM | IC50 [2, 4]: ≤ 100 nM

Cc1ccc(CC(=O)N2CC3(C2)CC2(CO3)C3=C(CC(C)(C)CC3=O)Nc3n[nH]cc32)cc1 (centres unmarked) [Compound 947281]
IC50 [1, 3]: ≤ 100 nM | IC50 [1, 6]: 100 to 1000 nM | IC50 [2, 4]: ≤ 100 nM | IC50 [2, 8]: 100 to 1000 nM

CC[C@@]1(c2cccc(-c3ccnc4c3cnn4C)c2)C2=C(CC(C)(C)NC2=O)Nc2n[nH]cc21 [Compound 948817]
IC50 [1, 5]: > 5000 nM | IC50 [2, 7]: > 5000 nM

CC[C@@]1(c2ccccc2)C2=C(C[C@H](c3ccccc3)CC2=O)Nc2n[nH]cc21 [Compound 791263]
IC50 [1, 5]: > 5000 nM | IC50 [2, 7]: > 5000 nM

CC[C@]1(c2cc(N(C)C(C)=O)ccc2F)C2=C(CC(C)(C)CC2=O)Nc2n[nH]c(C)c21 [Compound 929451]
IC50 [1, 9]: > 5000 nM | IC50 [2, 10]: > 5000 nM

CC(C)C1CC(C(=O)N2CC3(C2)CC2(CO3)C3=C(CC(C)(C)CC3=O)Nc3n[nH]cc32)C1 (centres unmarked) [Compound 947273]
IC50 [1, 3]: ≤ 100 nM | IC50 [2, 4]: ≤ 100 nM

Cn1ccc(S(=O)(=O)N2CC[C@]3(C2)C2=C(CC(C)(C)CC2=O)Nc2n[nH]cc23)n1 [Compound 945712]
IC50 [1, 3]: ≤ 100 nM | IC50 [1, 13]: 100 to 1000 nM | IC50 [2, 4]: ≤ 100 nM | IC50 [2, 14]: ≤ 100 nM

CCC1(c2cccc(-c3c(C)cncc3C)c2)C2=C(CC(C)(C)CC2=O)Nc2n[nH]cc21 (centres unmarked) [Compound 945703]
IC50 [1, 11]: ≤ 100 nM | IC50 [2, 12]: ≤ 100 nM

CCC1(c2cccc(Br)c2)C2=C(CC(C)(C)C(F)C2=O)Nc2n[nH]cc21 (mixture of isomers) [Compound 826764]
IC50 [1, 5]: 100 to 1000 nM | IC50 [2, 7]: ≤ 100 nM

CCC1(c2cccc(-c3ccnc(OC)c3)c2)C2=C(CC(C)(C)CC2=O)Nc2n[nH]cc21 (centres unmarked) [Compound 883850]
IC50 [1, 9]: 100 to 1000 nM | IC50 [2, 10]: ≤ 100 nM

CC1(C)CC(=O)C2=C(C1)Nc1n[nH]cc1C21CCN(S(=O)(=O)c2cnc3n2CCCC3)CC1 [Compound 947480]
IC50 [1, 11]: ≤ 100 nM | IC50 [2, 12]: ≤ 100 nM

CCC1(c2cccc(C(F)(F)F)c2)C2=C(CC3(CCNC3=O)CC2=O)Nc2n[nH]cc21 (centres unmarked) [Compound 950324]
IC50 [1, 11]: 100 to 1000 nM | IC50 [2, 12]: ≤ 100 nM

CC1(C)CC(=O)C2=C(C1)Nc1n[nH]cc1C21COC2(CN(C(=O)CC3CC3)C2)C1 (centres unmarked) [Compound 947298]
IC50 [1, 3]: ≤ 100 nM | IC50 [2, 4]: ≤ 100 nM

CCC1(c2cccc(-c3ccccc3)c2)C2=C(CC(C)(C)CC2=O)Nc2n[nH]cc21 (centres unmarked) [Compound 789514]
IC50 [1, 5]: 100 to 1000 nM | IC50 [2, 7]: 100 to 1000 nM
